# PubChem BioAssay (NCI)
#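 The concentration for 50% growth inhibition is given as GI50. TGI marks complete inhibition of growth.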
# How the values were obtained:
# Test in all cases: inhibition of tumour cell growth, NCI panel, 384-well format
# NCI-H322M lung = system: NCI-H322M lung
# OVCAR-5 ovarian = system: OVCAR-5 ovarian
# NCI-H522 lung = system: NCI-H522 lung
# NCI-H460 NSCLC = system: NCI-H460 NSCLC
# HCT-116 colon = system: HCT-116 colon
# NCI-H23 lung = system: NCI-H23 lung
# RXF 393 renal = system: RXF 393 renal
# M14 melanoma = system: M14 melanoma
# HOP-62 NSCLC = system: HOP-62 NSCLC
# A549 NSCLC = system: A549 NSCLC
# HL-60(TB) leukemia = system: HL-60(TB) leukemia
# CAKI-1 renal = system: CAKI-1 renal
# MDA-MB-435 melanoma = system: MDA-MB-435 melanoma
# SK-MEL-28 melanoma = system: SK-MEL-28 melanoma
# BT-549 breast = system: BT-549 breast
# MOLT-4 leukemia = system: MOLT-4 leukemia
# T-47D breast = system: T-47D breast
# KM12 colon = system: KM12 colon
# HOP-92 NSCLC = system: HOP-92 NSCLC
# SN12C renal = system: SN12C renal
# OVCAR-4 ovarian = system: OVCAR-4 ovarian
# UACC-257 melanoma = system: UACC-257 melanoma
# HS 578T breast = system: HS 578T breast
# PC-3 prostate = system: PC-3 prostate
# MCF7 breast = system: MCF7 breast
# MDA-MB-468 breast = system: MDA-MB-468 breast
# RPMI-8226 leukemia = system: RPMI-8226 leukemia
# SW-620 colon = system: SW-620 colon
# SF-268 CNS = system: SF-268 CNS
# DU-145 prostate = system: DU-145 prostate
# MALME-3M melanoma = system: MALME-3M melanoma
# OVCAR-8 ovarian = system: OVCAR-8 ovarian
# SNB-19 CNS = system: SNB-19 CNS
# EKVX NSCLC = system: EKVX NSCLC
# IGROV1 ovarian = system: IGROV1 ovarian
# SF-539 CNS = system: SF-539 CNS
# UO-31 renal = system: UO-31 renal
# UACC-62 melanoma = system: UACC-62 melanoma
# SR leukemia = system: SR leukemia
# SK-MEL-5 melanoma = system: SK-MEL-5 melanoma
# SF-295 CNS = system: SF-295 CNS
# 786-0 renal = system: 786-0 renal
# SNB-75 CNS = system: SNB-75 CNS
# SK-OV-3 ovarian = system: SK-OV-3 ovarian
# NCI/ADR-RES ovarian = system: NCI/ADR-RES ovarian
# A498 renal = system: A498 renal
# NCI-H226 lung = system: NCI-H226 lung
# ACHN renal = system: ACHN renal
# CCRF-CEM leukemia = system: CCRF-CEM leukemia
# HCT-15 colon = system: HCT-15 colon
# U251 glioblastoma = system: U251 glioblastoma
# LOX IMVI melanoma = system: LOX IMVI melanoma
# TK-10 renal = system: TK-10 renal
# OVCAR-3 ovarian = system: OVCAR-3 ovarian
smiles,measurement,setting,value
COc1ccc(CN2C3CC2CN(c2ccc(-c4cc(OCC(C)(C)O)cn5ncc(C#N)c45)cn2)C3)cn1,GI50,NCI-H322M lung,> 74 µM
same,TGI,NCI-H322M lung,> 100 µM
same,GI50,OVCAR-5 ovarian,> 100 µM
same,TGI,OVCAR-5 ovarian,> 100 µM
same,GI50,NCI-H522 lung,7.9 µM
same,TGI,NCI-H522 lung,> 31.6 µM
same,GI50,NCI-H460 NSCLC,5.11 µM
same,TGI,NCI-H460 NSCLC,> 100 µM
same,GI50,HCT-116 colon,24.2 µM
same,TGI,HCT-116 colon,> 100 µM
same,GI50,NCI-H23 lung,8.4 µM
same,TGI,NCI-H23 lung,27.8 µM
same,GI50,RXF 393 renal,4.29 µM
same,TGI,RXF 393 renal,7.91 µM
same,GI50,M14 melanoma,> 82 µM
same,TGI,M14 melanoma,> 100 µM
same,GI50,HOP-62 NSCLC,8.51 µM
same,TGI,HOP-62 NSCLC,> 31.6 µM
same,GI50,A549 NSCLC,7.53 µM
same,TGI,A549 NSCLC,> 31.6 µM
same,GI50,HL-60(TB) leukemia,4.36 µM
same,TGI,HL-60(TB) leukemia,11.5 µM
same,GI50,CAKI-1 renal,5.02 µM
same,TGI,CAKI-1 renal,> 100 µM
same,GI50,MDA-MB-435 melanoma,> 100 µM
same,TGI,MDA-MB-435 melanoma,> 100 µM
same,GI50,SK-MEL-28 melanoma,> 100 µM
same,TGI,SK-MEL-28 melanoma,> 100 µM
same,GI50,BT-549 breast,1.87 µM
same,TGI,BT-549 breast,7.68 µM
same,GI50,MOLT-4 leukemia,1.58 µM
same,TGI,MOLT-4 leukemia,3.13 µM
same,GI50,T-47D breast,> 31.6 µM
same,TGI,T-47D breast,> 31.6 µM
same,GI50,KM12 colon,> 100 µM
same,TGI,KM12 colon,> 100 µM
same,GI50,HOP-92 NSCLC,2.92 µM
same,TGI,HOP-92 NSCLC,38.1 µM
same,GI50,SN12C renal,2.44 µM
same,TGI,SN12C renal,> 45.8 µM
same,GI50,OVCAR-4 ovarian,5.26 µM
same,TGI,OVCAR-4 ovarian,> 100 µM
same,GI50,UACC-257 melanoma,> 31.6 µM
same,TGI,UACC-257 melanoma,> 31.6 µM
same,GI50,HS 578T breast,6.92 µM
same,TGI,HS 578T breast,> 50.1 µM
same,GI50,PC-3 prostate,> 100 µM
same,TGI,PC-3 prostate,> 100 µM
same,GI50,MCF7 breast,> 31.6 µM
same,TGI,MCF7 breast,> 31.6 µM
same,GI50,MDA-MB-468 breast,5.75 µM
same,TGI,MDA-MB-468 breast,9.04 µM
same,GI50,RPMI-8226 leukemia,> 28.8 µM
same,TGI,RPMI-8226 leukemia,> 31.6 µM
same,GI50,SW-620 colon,4.99 µM
same,TGI,SW-620 colon,> 100 µM
same,GI50,SF-268 CNS,> 26.8 µM
same,TGI,SF-268 CNS,> 100 µM
same,GI50,DU-145 prostate,28.3 µM
same,TGI,DU-145 prostate,> 100 µM
same,GI50,MALME-3M melanoma,> 28.9 µM
same,TGI,MALME-3M melanoma,> 100 µM
same,GI50,OVCAR-8 ovarian,22.3 µM
same,TGI,OVCAR-8 ovarian,> 31.6 µM
same,GI50,SNB-19 CNS,> 100 µM
same,TGI,SNB-19 CNS,> 100 µM
same,GI50,EKVX NSCLC,> 31.6 µM
same,TGI,EKVX NSCLC,> 31.6 µM
same,GI50,IGROV1 ovarian,7.33 µM
same,TGI,IGROV1 ovarian,> 60 µM
same,GI50,SF-539 CNS,2.08 µM
same,TGI,SF-539 CNS,6.86 µM
same,GI50,UO-31 renal,> 100 µM
same,TGI,UO-31 renal,> 100 µM
same,GI50,UACC-62 melanoma,98.7 µM
same,TGI,UACC-62 melanoma,> 100 µM
same,GI50,SR leukemia,1.64 µM
same,TGI,SR leukemia,3.24 µM
same,GI50,SK-MEL-5 melanoma,> 31.6 µM
same,TGI,SK-MEL-5 melanoma,> 31.6 µM
same,GI50,SF-295 CNS,5.36 µM
same,TGI,SF-295 CNS,9.56 µM
same,GI50,786-0 renal,57.3 µM
same,TGI,786-0 renal,> 100 µM
same,GI50,SNB-75 CNS,1.85 µM
same,TGI,SNB-75 CNS,7.29 µM
same,GI50,SK-OV-3 ovarian,24.3 µM
same,TGI,SK-OV-3 ovarian,> 31.6 µM
same,GI50,NCI/ADR-RES ovarian,21.4 µM
same,TGI,NCI/ADR-RES ovarian,> 100 µM
same,GI50,A498 renal,> 38.3 µM
same,TGI,A498 renal,> 100 µM
same,GI50,NCI-H226 lung,2.94 µM
same,TGI,NCI-H226 lung,15.4 µM
same,GI50,ACHN renal,25.4 µM
same,TGI,ACHN renal,> 100 µM
same,GI50,CCRF-CEM leukemia,1.99 µM
same,TGI,CCRF-CEM leukemia,3.76 µM
same,GI50,HCT-15 colon,9.55 µM
same,TGI,HCT-15 colon,> 31.6 µM
same,GI50,U251 glioblastoma,> 31.6 µM
same,TGI,U251 glioblastoma,> 31.6 µM
same,GI50,LOX IMVI melanoma,50.8 µM
same,TGI,LOX IMVI melanoma,> 100 µM
same,GI50,TK-10 renal,> 31.6 µM
same,TGI,TK-10 renal,> 31.6 µM
same,GI50,OVCAR-3 ovarian,> 28.5 µM
same,TGI,OVCAR-3 ovarian,> 100 µM
